Measured values: publication PMC7859889 (ACS chemical biology, 2020)
Entries after “also recorded” stand apart in the source; their conditions may differ. Counter-ions that a name gives are not always drawn. Like-named read-outs stand apart in the source and are kept apart here.

Key:
HLA-B HiBit cells = test: CellTiter-Glo; settings: for CTG Efficacy: IFN-β = 0%, 92 uM Digitonin = −100% activity; for IC50: read-out: CTG IC50
ISG15 = test: Multi Gene RT-qPCR, ISG15; assay type: cell-based, human; settings: compared to IFN-β treated cells; 4.0 ng/ml IFN-β plus 50 uM compound, 24 hrs
[1] = test system: HLA-B HiBit (MHC class I); test: HLA-B HiBit luminescent reporter assay; settings: for HiBit Efficacy: 4.0 ng/ml IFN-β, IFN-β = 0%, DMSO alone = −100% activity; for Emax: read-out: HiBit Efficacy
[2] = test system: type I IFN – MHC class I pathway; test: Average / all assays; assay type: cell-based, human; settings: for IC50: read-out: Average IC50; for hill slope: concentration-response curves
C25cl48 cells = test: IF cell count cytotoxicity; assay type: cell-based, human; settings: for Cell count Curve class: IF cell count cytotoxicity
HLA-B mRNA = test: HLA-B RT-qPCR tertiary assay; assay type: cell-based, human; settings: for IC50: read-out: RT-qPCR IC50; for Emax: read-out: RT-qPCR Efficacy
HLA and ISG genes = test: Multi Gene RT-qPCR, gene panel; assay type: cell-based, human; settings: 4.0 ng/ml IFN-β plus 50 uM compound, 24 hrs; for effect on HLA and ISG gene expression (in words): C25cl48 cells
IFIT1 = test: Multi Gene RT-qPCR, IFIT1; assay type: cell-based, human; settings: compared to IFN-β treated cells; 4.0 ng/ml IFN-β plus 50 uM compound, 24 hrs
HLA-ABC = HLA-ABC immunofluorescence; assay type: cell-based, human; settings: for Emax / IC50: Homo sapiens; for Emax: read-out: Immunofluorescence Efficacy
STAT1 = test: Western blot, STAT1 phosphorylation; assay type: cell-based, human; settings: C25cl48 cells, 0.5 hrs, 4.0 ng/ml IFN-β plus IC95 concentration of compound
MX1 = test: Multi Gene RT-qPCR, MX1; assay type: cell-based, human; settings: compared to IFN-β treated cells; 4.0 ng/ml IFN-β plus 50 uM compound, 24 hrs
HLA-C = test: Multi Gene RT-qPCR, HLA-C; assay type: cell-based, human; settings: compared to IFN-β treated cells; 4.0 ng/ml IFN-β plus 50 uM compound, 24 hrs
[3] = cited from earlier work
[4] = cited from earlier work; remark: listed apart in the source
[5] = 37.5 and 50 mg b.i.d. ref 43, 44; cited from earlier work
HLA-A = test: Multi Gene RT-qPCR, HLA-A; assay type: cell-based, human; settings: 4.0 ng/ml IFN-β plus 50 uM compound, 24 hrs
[6] = test system: IL-6 stimulation of whole blood; settings: IL-6 stimulation of whole blood ref 20; cited from earlier work
[7] = cytotoxicity, 4.0 ng/ml IFN-β, 24 hours
[8] = HLA-B HiBit clone AB-7 cells, 24 hours
[9] = read-out: HiBit IC50, HLA-B HiBit clone AB-7 cells, 4.0 ng/ml IFN-β plus compound titration, 24 hours
[10] = average of HiBit, Immunofluorescence, RT-qPCR
[11] = HLA-B mRNA, C25cl48 cells, 4.0 ng/mL IFN-β
[12] = HLA-ABC+ C25cl48 cells, IFN-β-stimulated, prednisolone acetate used for IF
[13] = read-out: Immunofluorescence IC50
[14] = compared to IFN-β treated cells

SMILES	CTG Curve class (HLA-B HiBit cells; [7])	HiBit Efficacy [1, 8]	Cell count Curve class (C25cl48 cells; C25cl48 cells)	efficacy in reducing all HLA and ISG genes (HLA and ISG genes)	effect on HLA and ISG gene expression (in words) (HLA and ISG genes)	Emax (HLA-B mRNA; Homo sapiens)	Emax (HLA-ABC)	Emax ([1]; Homo sapiens, 24 h)	IC50 ([2]; Homo sapiens)	IC50 (HLA-B mRNA; Homo sapiens)	IC50 (HLA-ABC; [13])	further results
Cc1sc2c(c1C)C(c1ccc(Cl)cc1)=N[C@@H](CC(=O)Nc1ccc(OCCOCCOCCOCCNc3cccc4c3C(=O)N(C3CCC(=O)NC3=O)C4=O)cc1)c1nnc(C)n1-2 (stereo partly shown) [ARV-825]	−1b	71%	4	low efficacy	reduced IFIT1 while increasing ISG15	–	–	–	–	–	–	CTG Efficacy (HLA-B HiBit cells; cytotoxicity): 8%; IC50 (HLA-B HiBit cells; [7]): 53 nM; increase of ISG15 mRNA (ISG15): 2.8 fold; IC50 [1, 9]: 97 nM; Average Curve class [2, 10]: −1b; Average Efficacy [2, 10]: 65%; IC50 [2, 10]: 84 nM; RT-qPCR Curve class (HLA-B mRNA; [11]): −1b; RT-qPCR Efficacy (HLA-B mRNA; [11]): 43%; IC50 (HLA-B mRNA; [11]): 65 nM; decrease of IFIT1 mRNA (IFIT1): 84%; Immunofluorescence Efficacy (HLA-ABC; [12]): 82%
CCS(=O)(=O)N1CC(CC#N)(n2cc(-c3ncnc4[nH]ccc34)cn2)C1 [Baricitinib, baricitinib]	4	100%	4	–	–	100%	100%	–	–	–	–	phosphorylation of STAT1 (STAT1): prevented phosphorylation of STAT1
COc1ccc(-c2nc(N3CCOCC3)c3sc(CN(C)c4ncc(C(=O)NO)cn4)cc3n2)cn1 [CUDC-907]	−1b	–	−3	70–80%	reduced 3 genes	73%	100%	86%	19 nM	23 nM	5.8 nM	IC50 (HLA-B HiBit cells; Homo sapiens, 24 h): 3500 nM; CTG Efficacy (HLA-B HiBit cells; cytotoxicity): 40%; decrease of MX1 mRNA (MX1): ~ 75%; decrease of HLA-C mRNA (HLA-C): ~ 75%; Cell count Efficacy at highest concentration (C25cl48 cells): (10) %; decrease of IFIT1 mRNA (IFIT1): ~ 75%
CCc1cnn2c(NCc3ccc[n+]([O-])c3)cc(N3CCCC[C@H]3CCO)nc12 [Dinaciclib, dinaciclib]	4	–	4	–	did not decrease any of the other genes tested; also recorded: increased HLA-C, ISG15, and MX1	117%	100%	100%	–	–	–	common adverse events [3]: leukopenia, thrombocytopenia, gastrointestinal symptoms, alopecia, and fatigue; increase of MX1 mRNA (MX1): ~ 3.3 fold; increase of ISG15 mRNA (ISG15): ~ 3.3 fold; increase of HLA-C mRNA (HLA-C): ~ 3.3 fold
CS[C@H]1SC[C@H]2C(=O)N(C)[C@@H](C(C)C)C(=O)OC[C@@H](NC(=O)c3cnc4ccccc4n3)C(=O)N[C@@H](C)C(=O)N(C)[C@@H]1C(=O)N(C)[C@@H](C(C)C)C(=O)OC[C@@H](NC(=O)c1cnc3ccccc3n1)C(=O)N[C@@H](C)C(=O)N2C [Echinomycin, echinomycin]	4	–	4	> 99%	normalized all genes	112%	120%	100%	6 nM	3 nM	4.1 nM	adverse effects in Phase I clinical trial [4]: nausea, vomiting, reversible liver enzyme abnormalities, and allergic reactions; hill slope [2]: ultrasensitive
CCN(CC)Cc1ccc2cc(COC(=O)Nc3ccc(C(=O)NO)cc3)ccc2c1 [Givinostat HCl, Givinostat]	−3	–	−3	70–80%	normalized HLA-A and -B to DMSO levels	100%	100%	82%	1800 nM	4100 nM	260 nM	CTG Efficacy at highest concentration (HLA-B HiBit cells): (18) %; Cell count Efficacy at highest concentration (C25cl48 cells): (25) %; decrease of ISGs (IFIT1, ISG15, MX1) (HLA and ISG genes; [14]): ~ 90%; safety signal at higher doses [5]: platelet count decrease
COc1cccc2c1C(=O)c1c(O)c3c(c(O)c1C2=O)C[C@@](O)(C(=O)CO)C[C@@H]3O[C@H]1C[C@H](N2CCO[C@H](OC)C2)[C@H](O)[C@H](C)O1 [Nemorubicin, nemorubicin]	4	–	4	> 99%	normalized all genes	133%	107%	100%	104 nM	92 nM	70 nM	–
Cc1[nH]c2ccccc2c1CCNCc1ccc(/C=C/C(=O)NO)cc1 [Panobinostat, panobinostat]	−3	–	4	70–80%	–	68%	111%	86%	40 nM	29 nM	28 nM	CTG Efficacy at highest concentration (HLA-B HiBit cells): (25) %; potency relative to givinostat at inhibiting IFN-β-MHC class I pathway [2]: 45 x; effect on HLA-A mRNA (HLA-A): no effect; decrease of all genes tested except HLA-A (HLA and ISG genes; [14]): ~ 80%
C[C@]12C=CC(=O)C=C1CC[C@@H]1[C@@H]2[C@@H](O)C[C@@]2(C)[C@H]1CC[C@]2(O)C(=O)CO [Prednisolone]	4	–	4	–	increased ISG15 and MX1	14%	31%	–	43 nM	30 nM	–	increase of MX1 mRNA (MX1): ~ 3.4 fold; increase of ISG15 mRNA (ISG15): ~ 3.4 fold
N#CC[C@H](C1CCCC1)n1cc(-c2ncnc3[nH]ccc23)cn1 [Ruxolitinib, ruxolitinib]	4	100%	4	–	–	115%	100%	–	1200 nM	1600 nM	880 nM	IC50 [6]: 282 ± 54 nM; CTG viability response in control titrations (HLA-B HiBit cells; HLA-B HiBit cells, 24 hrs): slight bell-shaped curve; IC50 ([1]; Homo sapiens, 24 h, read-out: HiBit IC50): 1100 nM; IC50 ([1]; Homo sapiens, 24 h, read-out: IC50, HiBit control titration): 340 ± 36 nM; phosphorylation of STAT1 (STAT1): prevented phosphorylation of STAT1; cell count response in control titrations (C25cl48 cells; C25cl48 cells, 48 hrs): bell shaped viability curve; IC50 (HLA-ABC; 48 h, read-out: IC50, HLA-ABC+ cells control titration): 3500 nM
C[C@@H]1CCN(C(=O)CC#N)C[C@@H]1N(C)c1ncnc2[nH]ccc12 [Tofacitinib, tofacitinib]	4	100%	4	–	–	83%	100%	–	–	–	–	phosphorylation of STAT1 (STAT1): prevented phosphorylation of STAT1
CC(C)[C@]12O[C@H]1[C@@H]1O[C@@]13[C@@]1(C)CCC4=C(COC4=O)[C@@H]1C[C@@H]1O[C@@]13C2=O [Triptonide, triptonide]	4	100%	4	> 99%	normalized all genes	–	–	–	–	–	–	HiBit Curve class ([1]; HLA-B HiBit clone AB-7 cells, 4.0 ng/ml IFN-β plus compound titration, 24 hours): −1a; IC50 [1, 9]: 47 nM; Average Curve class [2, 10]: −1a; Average Efficacy [2, 10]: 104%; hill slope [2]: ultrasensitive; IC50 [2, 10]: 246 nM; RT-qPCR Curve class (HLA-B mRNA; [11]): −1a; RT-qPCR Efficacy (HLA-B mRNA; [11]): 113%; IC50 (HLA-B mRNA; [11]): 500 nM; Immunofluorescence Curve class (HLA-ABC; [12]): −1a; Immunofluorescence Efficacy (HLA-ABC; [12]): 100%
CC(C)[C@]12O[C@H]1[C@@H]1O[C@]13[C@]1(O[C@H]1C[C@H]1C4=C(CC[C@@]13C)C(=O)OC4)[C@@H]2O [triptolide]	–	–	–	–	–	–	–	–	–	–	–	hill slope [2]: ultrasensitive
